Measurements as given in publication PMC7143076, “Anion Inhibition Studies of the β-Class Carbonic Anhydrase CAS3 from the Filamentous Ascomycete Sordaria macrospora” (Metabolites, 2020).
Like-named read-outs stand apart in the source and are kept apart here.

Target: T1, CAS3 (Sordaria macrospora, UniProt F7VU04)
T1 construct: gene SMAC_03179
Assay: stopped-flow CO2 hydrase assay
Assay type: biochemical

[1] = read-out: CAS3 ^c, CO2 1.7-17 mM, pH 8.3, 10-20 mM TRIS, 10 mM NaClO4, 20 °C, 15 min preincubation, sodium salt
[2] = read-out: CAS3 ^c, CO2 1.7-17 mM, pH 8.3, 10-20 mM TRIS, 10 mM NaClO4, 20 °C, 15 min preincubation

T1 sequence (F7VU04 1-174 limits assumed): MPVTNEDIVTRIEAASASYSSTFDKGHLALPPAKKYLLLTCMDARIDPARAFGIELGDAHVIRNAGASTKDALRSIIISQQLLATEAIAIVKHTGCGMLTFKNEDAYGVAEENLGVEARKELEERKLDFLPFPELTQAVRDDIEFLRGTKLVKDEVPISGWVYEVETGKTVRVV

Compound	Ki [1] [mM]	Ki (read-out: CAS3 ^c) [mM]	other results
N#CO [CNO^-]		3.2	
O=C(O)O [CO3^2-]			Ki (read-out: CAS2 ^b, CO2 1.7-17 mM, pH 8.3, 10-20 mM TRIS, 10 mM NaClO4, 20 °C, 15 min preincubation, sodium salt): 8 mM
NS(N)(=O)=O [H2NSO2NH2]			Ki [2]: 0.094 mM
S [HS^-]		8.3	
[N-]=[N+]=[N-] [N3^-]		7.2	
O=NO [NO2^-]	8.3		
OB(O)c1ccccc1 [Ph-B(OH)2]			Ki [2]: 0.097 mM
N#CS [SCN^-]	7.3		
N#C[SeH] [SeCN^-]		7.1	
O=[Se](=O)(O)O [SeO4^2-]		3.4	
O=[Te](=O)(O)O [TeO4^2-]		8.1	

Continued, in another order:

Ki [1] [mM]	Compound	Ki (read-out: CAS3 ^c) [mM]	other results
8.6	S=C(S)S [CS3^2-]		
0.89	CCN(CC)C(=S)S [Et2NCS2^-]		
0.095	NS(=O)(=O)O [H2NSO3H]		
3.4	O=C(O)O [HCO3^-]		
8.5	O=[N+]([O-])O [NO3^-]		
